# Results reported in patent US12552792B2, “Solid forms of an FGFR inhibitor and processes for preparing the same” (Incyte Corporation, priority 2018, dated 2026).
# “And” between values parts separate entries of the source, which are not always exact repeats. Identical values can stand only once.
# Legend:
# [1] = Competitive slurry experiments with mixed Compound 1 polymorphs (XRPD); assay type: physicochemical; conditions: for Solid State Form after competitive slurry: saturated Form I solution + 5 mg each of Form I through Form XXVI, stirred overnight, XRPD; for Competitive slurry result (form by XRPD): DCM/MeOH (9:1, 0.6 mL), 5 mg each of Form I through Form XXVI
# Description: To evaluate the transformation of solid forms of Compound 1, competitive slurry experiments were performed as follows. To the saturated solution of Form I in the solvent as listed in Table 11 was added Form I (5 mg), then 5 mg each of Form II through Form XXVI.
# The slurry was stirred overnight, filtered and analyzed by XRPD.
# A competitive slurry experiment was conducted in dichloromethane/methanol (9/1) according to the procedure in Table 12. The mixture of forms (Form I through Form XXVI) was converted to Form II after 15 min as shown by XRPD at various time points including 15 mins, 1 h, 18 h and 3 days, which indicated the Form II was consistently obtained.
# [2] = tested on: patients with advanced/metastatic or surgically unresectable cholangiocarcinoma; assay: Phase 2 clinical study in advanced/metastatic or surgically unresectable cholangiocarcinoma; conditions: for median PFS; Median time to events (95% Cl), months: Kaplan-Meier
# Description: The study also considers exposure-response analyses for key efficacy and safety parameters.
# The study enrolls approximately 100 subjects into Cohort A (FGFR2 translocations), 20 subjects into Cohort B (other FGF/FGFR alterations), and 20 subjects into Cohort C (US only, negative for FGF/FGFR alterations). […] Treatment will start on Day 1. Subjects undergo regular safety assessments during treatment as well as regular efficacy assessments. Subjects are allowed to continue administration in 21-day cycles until documented disease progression or unacceptable toxicity is reported.
# One cycle is defined as 21 days.
# The study subjects are those with advanced/metastatic or surgically unresectable cholangiocarcinoma with FGFR2 translocations, with other FGF/FGFR alterations, or who are negative for any FGF/FGFR alterations, who failed at least 1 previous treatment.
# The key inclusion criteria include men and women, aged 18 or older. The subjects have histologically or cytologically confirmed advanced/metastatic or surgically unresectable cholangiocarcinoma. Subjects in Cohort A have FGFR2 translocations with a documented fusion partner in central laboratory report. Subjects in Cohort B have other FGF/FGFR alterations. Subjects in Cohort C (US only) are negative for FGF/FGFR alterations. Additional key inclusion criteria include radiographically measureable disease per RECIST v. 1.1; documentation of FGF/FGFR gene alteration status; documented disease progression after at least 1 line of prior systemic therapy; ECOG performance status of 0 to 2; a life expectancy greater than or equal to 12 weeks; adequate hepatic function; adequate renal function; serum phosphate≤institutional ULN; and serum calcium within institutional normal range.
# The study schedule and procedures include regularly scheduled study visits at the clinical site as part of a 21-day cycle. Study visits begin with a prescreening to obtain FGF/FGFR status if unknown (results within approximately 2 years of screening are valid). Screening takes place on day −28 through day −1. Cycle 1 occurs on days 1, 8, and 15. Cycles 2+ begin on day 1. A safety follow up occurs 30 days (+5 days) from date of last dose. Disease status follow-up occurs every 9 weeks for subjects who discontinue for reasons other than disease progression. There is a survival follow-up every 12 weeks after discontinuation. […] Study visits include sample collection for hematology, chemistry, coagulation, endocrine monitoring, lipids, and urinalysis testing. Additionally, HIV screening (required for subjects outside the US) and hepatitis screening (serology) is done at screening. Pregnancy testing is also be done at screening, Day 1 of every cycle before dose administration, and at end-of-treatment. FGF/FGFR status may be determined locally.
# Tumor tissue is evaluated through the central laboratory for confirmation of FGF/FGFR alteration status. Blood samples for population pharmacokinetic analysis and whole blood pharmacodynamics and correlative studies are collected at various time points throughout the study and analyzed at the central laboratory or designee.
# Adverse event assessments, vital signs, electrocardiograms, physical examination, ECOG performance status comprehensive eye examination, and tumor and disease response assessments are performed by the investigative site. An objective assessment of disease status is performed at screening. Subsequently, disease status including RECIST radiological response assessment is assessed every 2 cycles for the first 4 cycles and every 3 cycles thereafter. A central radiology group provides centralized reading on all assessments.
# The primary endpoint of the study is to determine the objective response rate (ORR) in subjects with FGFR2 translocations based on the central genomics laboratory results.
# [3] = Cohort A (FGFR2 translocations), preliminary
# [4] = Cohort A (n = 47), independent reviewer
# [5] = Cohort B (n = 22), independent reviewer
# [6] = Cohort C (n = 18), independent reviewer
# [7] = all patients, 13.5 mg QD 2-weeks-on/1-week-off
structure (smiles),measurement,setting,value
"CCN1C(=O)N(c2c(F)c(OC)cc(OC)c2F)Cc2cnc3[nH]c(CN4CCOCC4)cc3c21 [Compound 1, 3-(2,6-difluoro-3,5-dimethoxyphenyl)-1-ethyl-8-(morpholin-4-ylmethyl)-1,3,4,7-tetrahydro-2H-pyrrolo[3′,2′:5,6]pyrido[4,3-d]pyrimidin-2-one]",Solid State Form after competitive slurry,[1]; Acetonitrile (1.7 mL),Form I
same,Competitive slurry result (form by XRPD),[1]; stirred for 15 min,Form II
same,Competitive slurry result (form by XRPD),[1]; stirred for 60 min,Form II
same,Competitive slurry result (form by XRPD),[1]; stirred for 18 h,Form II
same,Competitive slurry result (form by XRPD),[1]; stirred for 3 days,Form II
same,Solid State Form after competitive slurry,[1]; Ethanol (1.7 mL),Form I
same,Solid State Form after competitive slurry,[1]; Iso-propanol (1.7 mL),Form I
same,"Alopecia, TEAEs, All Grades, % of patients",[2]; All Cohorts (N = 89),41.6%
same,"Alopecia, TEAEs, Grade 3/4, % of patients",[2]; All Cohorts (N = 89),0.0%
same,"Alopecia, TRAEs, All Grades, % of patients",[2]; All Cohorts (N = 89),37.1%
same,"Alopecia, TRAEs, Grade 3/4, % of patients",[2]; All Cohorts (N = 89),0.0%
same,"Arthralgia, TEAEs, All Grades, % of patients",[2]; All Cohorts (N = 89),23.6%
same,"Arthralgia, TEAEs, Grade 3/4, % of patients",[2]; All Cohorts (N = 89),6.7%
same,"Arthralgia, TRAEs, All Grades, % of patients",[2]; All Cohorts (N = 89),11.2%
same,"Arthralgia, TRAEs, Grade 3/4, % of patients",[2]; All Cohorts (N = 89),4.5%
same,"Constipation, TEAEs, All Grades, % of patients",[2]; All Cohorts (N = 89),30.3%
same,"Constipation, TEAEs, Grade 3/4, % of patients",[2]; All Cohorts (N = 89),0.0%
same,"Constipation, TRAEs, All Grades, % of patients",[2]; All Cohorts (N = 89),11.2%
same,"Constipation, TRAEs, Grade 3/4, % of patients",[2]; All Cohorts (N = 89),0.0%
same,"Decreased appetite, TEAEs, All Grades, % of patients",[2]; All Cohorts (N = 89),37.1%
same,"Decreased appetite, TEAEs, Grade 3/4, % of patients",[2]; All Cohorts (N = 89),2.2%
same,"Decreased appetite, TRAEs, All Grades, % of patients",[2]; All Cohorts (N = 89),24.7%
same,"Decreased appetite, TRAEs, Grade 3/4, % of patients",[2]; All Cohorts (N = 89),1.1%
same,"Diarrhea, TEAEs, All Grades, % of patients",[2]; All Cohorts (N = 89),39.3%
same,"Diarrhea, TEAEs, Grade 3/4, % of patients",[2]; All Cohorts (N = 89),2.2%
same,"Diarrhea, TRAEs, All Grades, % of patients",[2]; All Cohorts (N = 89),29.2%
same,"Diarrhea, TRAEs, Grade 3/4, % of patients",[2]; All Cohorts (N = 89),2.2%
same,"Dry eye, TEAEs, All Grades, % of patients",[2]; All Cohorts (N = 89),20.2%
same,"Dry eye, TEAEs, Grade 3/4, % of patients",[2]; All Cohorts (N = 89),1.1%
same,"Dry eye, TRAEs, All Grades, % of patients",[2]; All Cohorts (N = 89),13.5%
same,"Dry eye, TRAEs, Grade 3/4, % of patients",[2]; All Cohorts (N = 89),1.1%
same,"Dry mouth, TEAEs, All Grades, % of patients",[2]; All Cohorts (N = 89),29.2%
same,"Dry mouth, TEAEs, Grade 3/4, % of patients",[2]; All Cohorts (N = 89),0.0%
same,"Dry mouth, TRAEs, All Grades, % of patients",[2]; All Cohorts (N = 89),23.6%
same,"Dry mouth, TRAEs, Grade 3/4, % of patients",[2]; All Cohorts (N = 89),0.0%
same,"Dysgeusia, TEAEs, All Grades, % of patients",[2]; All Cohorts (N = 89),36.0%
same,"Dysgeusia, TEAEs, Grade 3/4, % of patients",[2]; All Cohorts (N = 89),0.0%
same,"Dysgeusia, TRAEs, All Grades, % of patients",[2]; All Cohorts (N = 89),34.8%
same,"Dysgeusia, TRAEs, Grade 3/4, % of patients",[2]; All Cohorts (N = 89),0.0%
same,"Edema peripheral, TEAEs, All Grades, % of patients",[2]; All Cohorts (N = 89),22.5%
same,"Edema peripheral, TEAEs, Grade 3/4, % of patients",[2]; All Cohorts (N = 89),1.1%
same,"Edema peripheral, TRAEs, All Grades, % of patients",[2]; All Cohorts (N = 89),3.4%
same,"Edema peripheral, TRAEs, Grade 3/4, % of patients",[2]; All Cohorts (N = 89),0.0%
same,"Fatigue, TEAEs, All Grades, % of patients",[2]; All Cohorts (N = 89),36.0%
same,"Fatigue, TEAEs, Grade 3/4, % of patients",[2]; All Cohorts (N = 89),4.5%
same,"Fatigue, TRAEs, All Grades, % of patients",[2]; All Cohorts (N = 89),23.6%
same,"Fatigue, TRAEs, Grade 3/4, % of patients",[2]; All Cohorts (N = 89),1.1%
same,"Hyperphosphatemia, TEAEs, All Grades, % of patients",[2]; All Cohorts (N = 89),60.7%
same,"Hyperphosphatemia, TEAEs, Grade 3/4, % of patients",[2]; All Cohorts (N = 89),0.0%
same,"Hyperphosphatemia, TRAEs, All Grades, % of patients",[2]; All Cohorts (N = 89),55.1%
same,"Hyperphosphatemia, TRAEs, Grade 3/4, % of patients",[2]; All Cohorts (N = 89),0.0%
same,"Hypophosphatemia, TEAEs, All Grades, % of patients",[2]; All Cohorts (N = 89),25.8%
same,"Hypophosphatemia, TEAEs, Grade 3/4, % of patients",[2]; All Cohorts (N = 89),13.5%
same,"Hypophosphatemia, TRAEs, All Grades, % of patients",[2]; All Cohorts (N = 89),10.1%
same,"Hypophosphatemia, TRAEs, Grade 3/4, % of patients",[2]; All Cohorts (N = 89),5.6%
same,"Nausea, TEAEs, All Grades, % of patients",[2]; All Cohorts (N = 89),29.2%
same,"Nausea, TEAEs, Grade 3/4, % of patients",[2]; All Cohorts (N = 89),0.0%
same,"Nausea, TRAEs, All Grades, % of patients",[2]; All Cohorts (N = 89),15.7%
same,"Nausea, TRAEs, Grade 3/4, % of patients",[2]; All Cohorts (N = 89),0.0%
same,"Stomatitis, TEAEs, All Grades, % of patients",[2]; All Cohorts (N = 89),30.3%
same,"Stomatitis, TEAEs, Grade 3/4, % of patients",[2]; All Cohorts (N = 89),3.4%
same,"Stomatitis, TRAEs, All Grades, % of patients",[2]; All Cohorts (N = 89),27.0%
same,"Stomatitis, TRAEs, Grade 3/4, % of patients",[2]; All Cohorts (N = 89),3.4%
same,Median OS,[2]; Cohort A (FGFR2 translocations),15.8 months
same,"median PFS; Median time to events (95% Cl), months","[2]; Cohort A (FGFR2 translocations), 47 evaluable patients, independent reviewer",9.2 months and 9.20 (6.44-NE) months
same,objective response rate (ORR),"[2]; Cohort A (FGFR2 translocations), 47 patients followed >=8 months, 13.5 mg QD 2-weeks-on/1-week-off, independent reviewer, preliminary",40.4%
same,Disease control rate (DCR),[2]; [3],85.1%
same,median duration of response (DOR),[2]; [3],has not been reached
same,probability of maintaining response for greater than or equal to six months,[2]; [3],86.2%
same,"Best OR: CR, % of patients",[2]; [4],(0.0) %
same,"Best OR: NE, % of patients",[2]; [4],(4.3) %
same,"Best OR: PD, % of patients",[2]; [4],(10.6) %
same,"Best OR: PR, % of patients",[2]; [4],(40.4) %
same,"Best OR: SD, % of patients",[2]; [4],(44.7) %
same,DCR,[2]; [4],85.1%
same,ORR,[2]; [4],40.4%
same,"PFS Events, %","[2]; Cohort A, 47 evaluable patients",46.8%
same,"Best OR: CR, % of patients",[2]; [5],(0.0) %
same,"Best OR: NE, % of patients",[2]; [5],(22.7) %
same,"Best OR: PD, % of patients",[2]; [5],(31.8) %
same,"Best OR: PR, % of patients",[2]; [5],(0.0) %
same,"Best OR: SD, % of patients",[2]; [5],(45.5) %
same,DCR,[2]; [5],45.5%
same,ORR,[2]; [5],0%
same,Median OS,[2]; Cohort B (other FGF/FGFR alterations),6.8 months
same,"median PFS; Median time to events (95% Cl), months","[2]; Cohort B (other FGF/FGFR alterations), 22 evaluable patients, independent reviewer",2.1 months and 2.10 (1.18-6.80) months
same,Disease control rate (DCR),"[2]; Cohort B (other FGF/FGFR alterations), preliminary",45.5%
same,"PFS Events, %","[2]; Cohort B, 22 evaluable patients",77.3%
same,"Best OR: CR, % of patients",[2]; [6],(0.0) %
same,"Best OR: NE, % of patients",[2]; [6],(22.2) %
same,"Best OR: PD, % of patients",[2]; [6],(55.6) %
same,"Best OR: PR, % of patients",[2]; [6],(0.0) %
same,"Best OR: SD, % of patients",[2]; [6],(22.2) %
same,DCR,[2]; [6],22.2%
same,ORR,[2]; [6],0%
same,Median OS,[2]; Cohort C (negative for FGF/FGFR alterations),4.0 months
same,"median PFS; Median time to events (95% Cl), months","[2]; Cohort C (negative for FGF/FGFR alterations), 18 evaluable patients, independent reviewer",1.7 months and 1.68 (1.38-1.84) months
same,Disease control rate (DCR),"[2]; Cohort C (negative for FGF/FGFR alterations), preliminary",22.2%
same,"PFS Events, %","[2]; Cohort C, 18 evaluable patients",88.9%
same,patients with TEAEs with a fatal outcome,"[2]; all cohorts, none related to study treatment",Five
same,Grade 3 or greater TEAE abdominal pain,[2]; [7],6.7%
same,Grade 3 or greater TEAE arthralgia,[2]; [7],6.7%
same,Grade 3 or greater TEAE hyponatremia,[2]; [7],7.9%
same,Grade 3 or greater TEAE hypophosphatemia,[2]; [7],13.5%
same,TEAE alopecia,[2]; [7],41.6%
same,TEAE decreased appetite,[2]; [7],37.1%
same,TEAE diarrhea,[2]; [7],39.3%
same,TEAE dysgeusia,[2]; [7],36.0%
same,TEAE fatigue,[2]; [7],36.0%
same,TEAE hyperphosphatemia,[2]; [7],60.7%
same,tolerability (in words),"[2]; interim analysis, patients with at least 8 months follow up",generally well tolerated
